Our source for the IC50 values is patent US12668600B2 (Kumquat Biosciences Inc., priority 2023, dated 2026).

Common to all, as to format: biochemical
The target in experiment [1] is T1, KRAS G12D (Homo sapiens, UniProt P01116, G12D).
T1 construct: made in house; host or cells: E. coli, e.g. BL21 (DE3)
Description: HTRF KRAS-SOS1 interaction assay, KRAS G12D. Conditions: binned ≤2 μM / >2 μM, read-out: Inhibition of KRAS G12D (IC50). Put shortly: (§1)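 GST-KRAS + anti-GST-Eu; His-hSOS1 + anti-6His-XL665; cpd in DMSO, duplicate, 10–0.01 μM; ~10 min incubation; HTRF ex 337/em 620, 665 nm; IC50 fitted on 665/620 ratio.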
In general terms: In TR-FRET formats the signal depends on donor and acceptor labels being close together.

In experiment [2] the target is T2, KRAS WT (Homo sapiens, UniProt P01116).
T2 construct: made in house; host or cells: E. coli, e.g. BL21 (DE3)
The experiment is described as follows: HTRF KRAS-SOS1 interaction assay, wildtype KRAS. Conditions: binned ≤2 μM / >2 μM, read-out: Inhibition of KRAS WT (IC50). Put shortly: as §1

The target of experiment [3] is T3, KRAS G12V (Homo sapiens, UniProt P01116, G12V).
T3 construct: made in house; host or cells: E. coli, e.g. BL21 (DE3)
Description: HTRF KRAS-SOS1 interaction assay, KRAS G12V. Conditions: binned ≤2 μM / >2 μM, read-out: Inhibition of KRAS G12V (IC50). The method, boiled down: as §1

For experiment [4], the target named is T4, KRAS G12S (Homo sapiens, UniProt P01116, G12S).
T4 construct: made in house; host or cells: E. coli, e.g. BL21 (DE3)
Description: HTRF KRAS-SOS1 interaction assay, KRAS G12S. Conditions: binned ≤2 μM / >2 μM, read-out: Inhibition of KRAS G12S (IC50). The method, boiled down: as §1

T3 sequence (P01116 1-188 isoform P01116-2 G12V): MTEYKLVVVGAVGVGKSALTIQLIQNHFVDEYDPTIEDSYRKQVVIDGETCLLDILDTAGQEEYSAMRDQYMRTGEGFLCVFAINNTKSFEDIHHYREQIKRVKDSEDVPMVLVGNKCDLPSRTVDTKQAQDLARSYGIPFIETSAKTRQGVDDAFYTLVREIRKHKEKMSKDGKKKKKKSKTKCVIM
T4 sequence (P01116 1-188 isoform P01116-2 G12S): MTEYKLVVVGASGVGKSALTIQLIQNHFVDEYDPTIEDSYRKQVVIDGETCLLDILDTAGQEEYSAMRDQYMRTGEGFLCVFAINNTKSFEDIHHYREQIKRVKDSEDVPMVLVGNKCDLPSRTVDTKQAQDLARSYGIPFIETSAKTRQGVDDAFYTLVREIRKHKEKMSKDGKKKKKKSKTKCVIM
T2 sequence (P01116 1-188 isoform P01116-2): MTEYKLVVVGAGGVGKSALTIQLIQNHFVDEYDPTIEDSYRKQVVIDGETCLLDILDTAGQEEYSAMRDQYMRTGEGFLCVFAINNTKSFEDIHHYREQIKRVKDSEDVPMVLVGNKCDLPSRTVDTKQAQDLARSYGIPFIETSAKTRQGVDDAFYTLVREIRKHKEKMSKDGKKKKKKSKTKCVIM
T1 sequence (P01116 1-188 isoform P01116-2 G12D): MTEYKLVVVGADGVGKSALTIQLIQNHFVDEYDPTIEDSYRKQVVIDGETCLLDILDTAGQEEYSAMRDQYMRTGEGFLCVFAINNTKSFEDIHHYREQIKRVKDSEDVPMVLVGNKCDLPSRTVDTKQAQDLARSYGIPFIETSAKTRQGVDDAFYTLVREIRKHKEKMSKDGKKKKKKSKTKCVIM

Consider `C[C@H](c1cccnc1N)N1CCOc2c(C(F)(F)F)c(-c3ccc(F)c4sc(N)c(C#N)c34)c(F)c3nc(OCC4(CN5CCC(=C(F)F)CC5)CC4)nc1c23` (single isomer, unassigned) [Compound 693], for which the IC50 in experiment [1], in experiment [2], in experiment [3] and in experiment [4] was at most 2000 nM each time.

With `CC[S+]([O-])[C@@H]1C[C@]2(COc3nc4c5c(c(Cl)c(-c6ccc(F)c7sc(N)c(C#N)c67)c(F)c5n3)OCCN4[C@H](C)c3cccnc3N)CCC[N+]2([O-])C1` (mixture of isomers) [Compound 626, (2R,7aS)-7a-(((9-(2-amino-3-cyano-7-fluorobenzo[b]thiophen-4-yl)-4-((R)-1-(2-aminopyridin-3-yl)ethyl)-8-chloro-10-fluoro-5,6-dihydro-4H-[1,4]oxazepino[5,6,7-de]quinazolin-2-yl)oxy)methyl)-2-(ethylsulfinyl)hexahydropyrrolizine 4(1H)-oxide], the concentration for half-maximal inhibition (IC50) in experiment [1], in experiment [2], in experiment [3] and in experiment [4] was at most 2000 nM in each case.

As to `Cc1c(F)c(N)cc(-c2nc3c4c(nc(OC[C@@]56CCCN5C[C@H](F)C6)nc4c2F)N([C@H](C)c2cccnc2N)CCO3)c1C(F)(F)F` (single isomer, unassigned) [Compound 765], the IC50 in experiment [1], in experiment [2], in experiment [3] and in experiment [4] was at most 2000 nM each time.

Take `CN(C)C(=O)C[C@H](c1cccnc1N)N1CCOc2c(C(F)(F)F)c(-c3ccc(F)c4sc(N)c(C#N)c34)c(F)c3nc(OC[C@@]45CCCN4C[C@H](F)C5)nc1c23` [Compound 810, (3R)-3-(9-(2-amino-3-cyano-7-fluorobenzo[b]thiophen-4-yl)-10-fluoro-2-(((2R,7aS)-2-fluorotetrahydro-1H-pyrrolizin-7a(5H)-yl)methoxy)-8-(trifluoromethyl)-5,6-dihydro-4H-[1,4]oxazepino[5,6,7-de]quinazolin-4-yl)-3-(2-aminopyridin-3-yl)-N,N-dimethylpropanamide]: the IC50 in experiment [1], in experiment [2], in experiment [3] and in experiment [4] was at most 2000 nM in each case.

On to `N#Cc1c(N)sc2c(F)ccc(-c3c(C(F)(F)F)c4c5c(nc(OC[C@@]67CCCN6C[C@@]6(CC6(F)F)C7)nc5c3F)N([C@H](CCC(F)(F)F)c3cc(F)cnc3N)CCO4)c12` [Compound 617, 2-amino-4-(4-((R)-1-(2-amino-5-fluoropyridin-3-yl)-4,4,4-trifluorobutyl)-2-(((1S,7a′S)-2,2-difluorodihydro-1′H,3′H-spiro[cyclopropane-1,2′-pyrrolizin]-7a′(5′H)-yl)methoxy)-10-fluoro-8-(trifluoromethyl)-5,6-dihydro-4H-[1,4]oxazepino[5,6,7-de]quinazolin-9-yl)-7-fluorobenzo[b]thiophene-3-carbonitrile], for which the IC50 in experiment [1], in experiment [2], in experiment [3] and in experiment [4] was at most 2000 nM each time.

For the compound `C[C@@H]1COCCN1CC1(COc2nc3c4c(c(C(F)(F)F)c(-c5ccc(F)c6sc(N)c(C#N)c56)c(F)c4n2)OCCN3[C@H](C)c2cccnc2N)CC1` (single isomer, unassigned) [Compound 807], the IC50 in experiment [1], in experiment [2], in experiment [3] and in experiment [4] was over 2000 nM throughout.

For `N#Cc1c(N)sc2c(F)ccc(-c3c(C(F)(F)F)c4c5c(nc(OC[C@@]67CCCN6CC(=C(F)F)C7)nc5c3F)N([C@H](CC3CCOCC3)c3cccnc3N)CCO4)c12` [Compound 781, 2-amino-4-(4-((R)-1-(2-aminopyridin-3-yl)-2-(tetrahydro-2H-pyran-4-yl)ethyl)-2-(((S)-2-(difluoromethylene)tetrahydro-1H-pyrrolizin-7a(5H)-yl)methoxy)-10-fluoro-8-(trifluoromethyl)-5,6-dihydro-4H-[1,4]oxazepino[5,6,7-de]quinazolin-9-yl)-7-fluorobenzo[b]thiophene-3-carbonitrile], the IC50 in experiment [1], in experiment [2], in experiment [3] and in experiment [4] was at most 2000 nM in each case.

For `N#Cc1c(N)sc2c(F)ccc(-c3c(Cl)c4c5c(nc(OC[C@@]67CCCN6C[C@H](F)C7)nc5c3F)N(Cc3cccnc3N)C3COCC3CO4)c12` (mixture of isomers) [Compound 868, 2-amino-4-(12-((2-aminopyridin-3-yl)methyl)-6-chloro-4-fluoro-2-(((2R,7aS)-2-fluorotetrahydro-1H-pyrrolizin-7a (5H)-yl)methoxy)-8a,9,11a, 12-tetrahydro-8H, 11H-furo[3′,4′: 6,7][1,5]oxazocino[4,3,2-de]quinazolin-5-yl)-7-fluorobenzo[b]thiophene-3-carbonitrile], the IC50 in experiment [1], in experiment [2], in experiment [3] and in experiment [4] was at most 2000 nM each time.

Take `CC(=O)c1c(F)ccc2cc(O)cc(-c3nc4c5c(nc(OC[C@@]67CCCN6C[C@H](F)C7)nc5c3F)N(C(C)c3cccnc3N)CCO4)c12` (mixture of isomers) [Compound 744]: the concentration for half-maximal inhibition (IC50) in experiment [1], in experiment [2], in experiment [3] and in experiment [4] was at most 2000 nM in each case.

As for `CO[C@H]1CCN(C)[C@@H]1[C@H](C)Oc1nc2c3c(c(C(F)(F)F)c(-c4ccc(F)c5sc(N)c(C#N)c45)c(F)c3n1)OCCN2[C@H](CCC(F)(F)F)c1cccnc1N` [Compound 649, 2-amino-4-(4-((R)-1-(2-aminopyridin-3-yl)-4,4,4-trifluorobutyl)-10-fluoro-2-((S)-1-((2R,3S)-3-methoxy-1-methylpyrrolidin-2-yl)ethoxy)-8-(trifluoromethyl)-5,6-dihydro-4H-[1,4]oxazepino[5,6,7-de]quinazolin-9-yl)-7-fluorobenzo[b]thiophene-3-carbonitrile], the IC50 in experiment [1], in experiment [2], in experiment [3] and in experiment [4] was at most 2000 nM in each case.

In the case of `N#Cc1c(N)sc2c(F)ccc(-c3c(C(F)(F)F)c4c5c(nc(OC[C@@]67CCCN6C[C@H](F)C7)nc5c3F)N([C@H](CCC3CCC3)c3cccnc3N)CCO4)c12` (single isomer, unassigned) [Compound 631], the IC50 (as a rule, the concentration at which inhibition is half-maximal) in experiment [1] was over 2000 nM; in experiment [2], over 2000 nM; in experiment [3] it was at most 2000 nM; in experiment [4], at most 2000 nM.

With `N#Cc1c(N)sc2c(F)ccc(-c3c(Cl)c4c5c(nc(OC[C@@]67CCCN6C[C@H](F)C7)nc5c3F)N([C@@H](c3cccnc3N)C(F)(F)F)CCO4)c12` [Compound 833, 2-amino-4-(4-((S)-1-(2-aminopyridin-3-yl)-2,2,2-trifluoroethyl)-8-chloro-10-fluoro-2-(((2R,7aS)-2-fluorotetrahydro-1H-pyrrolizin-7a(5H)-yl)methoxy)-5,6-dihydro-4H-[1,4]oxazepino[5,6,7-de]quinazolin-9-yl)-7-fluorobenzo[b]thiophene-3-carbonitrile], the IC50 in experiment [1], in experiment [2], in experiment [3] and in experiment [4] was at most 2000 nM each time.

`C[C@H](c1cccnc1N)N1CCOc2c(Cl)c(-c3ccc(F)c4sc(N)c(C#N)c34)c(F)c3nc(OCC45CCCC4CCC5)nc1c23` (single isomer, unassigned) [Compound 914]: the IC50 in experiment [1], in experiment [2], in experiment [3] and in experiment [4] was at most 2000 nM each time.

With `C[C@@H]1CN(CC2(COc3nc4c5c(c(C(F)(F)F)c(-c6ccc(F)c7sc(N)c(C#N)c67)c(F)c5n3)OCCN4[C@H](C)c3cccnc3N)CC2)CCO1` (single isomer, unassigned) [Compound 826], the half-maximal inhibitory concentration (IC50) in experiment [1], in experiment [2], in experiment [3] and in experiment [4] was over 2000 nM in each case.

On to `Cc1c(F)c(N)cc(-c2nc3c4c(nc(O[C@@H](C)[C@@H]5CCCN5C)nc4c2F)N([C@H](C)c2cccnc2N)C[C@H](C)O3)c1C(F)(F)F` (single isomer, unassigned) [Compound 816], for which the IC50 in experiment [1], in experiment [2], in experiment [3] and in experiment [4] was at most 2000 nM throughout.

Regarding `C[C@H](c1cc(Cl)cnc1N)N1CCOc2c(C(F)(F)F)c(-c3ccc(F)c4sc(N)c(C#N)c34)c(F)c3nc(OCC4(CN5CCC(F)CC5)CC4)nc1c23` [Compound 830, 2-amino-4-(4-((R)-1-(2-amino-5-chloropyridin-3-yl)ethyl)-10-fluoro-2-((1-((4-fluoropiperidin-1-yl)methyl)cyclopropyl)methoxy)-8-(trifluoromethyl)-5,6-dihydro-4H-[1,4]oxazepino[5,6,7-de]quinazolin-9-yl)-7-fluorobenzo[b]thiophene-3-carbonitrile], the concentration for half-maximal inhibition (IC50) in experiment [1], in experiment [2], in experiment [3] and in experiment [4] was at most 2000 nM throughout.
